According to patent US9409966B2, “Glucagon-like peptide-1 derivatives and their pharmaceutical use” (priority 2007, dated 2016):
Each block holds one compound with its values, some of them ahead of it. *1 amine or outer side, *2 acyl side, *3 side chain or, on linkers, in order; H or OH if unused. Where a SMILES comes first, the peptide text is derived from it. Side-chain parts run from the residue outwards. [ ]: non-standard residue; d: D form. The star is where a group is joined. C20 diacid = O=C(O)CCCCCCCCCCCCCCCCCCC(=O)*; βAsp = O=C(O)[C@H](CC(=O)[*:2])N[*:1]; AEEA = NCCOCCOCC(=O)O; Aib = CC(C)(N)C(=O)O; Inp = O=C(O)C1CCNCC1

Columns and labels:
[1] = target: T1, human GLP-1 receptor (Homo sapiens, UniProt P43220); assay: Stimulation of cAMP formation in a cell line expressing the cloned human GLP-1 receptor; assay type: biochemical; settings: cAMP production, purified plasma membranes from BHK467-12A (tk-ts13), AlphaScreen cAMP Assay Kit; read-out: Potency [EC50/nM]
T1 construct: expressed in transfected cells; host or cells: BHK467-12A (tk-ts13) baby hamster kidney cells; purified plasma membranes
T1 sequence (P43220 24-463): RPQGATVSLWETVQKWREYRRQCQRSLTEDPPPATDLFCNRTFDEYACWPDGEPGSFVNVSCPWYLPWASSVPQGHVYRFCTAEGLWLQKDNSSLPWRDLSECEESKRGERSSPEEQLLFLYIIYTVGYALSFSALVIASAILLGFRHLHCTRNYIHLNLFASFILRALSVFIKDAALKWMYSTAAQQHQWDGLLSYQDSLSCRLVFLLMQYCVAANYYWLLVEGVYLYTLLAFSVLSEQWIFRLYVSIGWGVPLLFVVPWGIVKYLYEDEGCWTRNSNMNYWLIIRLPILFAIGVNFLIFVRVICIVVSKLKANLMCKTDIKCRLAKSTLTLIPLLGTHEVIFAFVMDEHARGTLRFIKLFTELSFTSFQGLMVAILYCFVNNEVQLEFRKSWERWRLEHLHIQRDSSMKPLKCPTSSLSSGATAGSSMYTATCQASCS
Protocol: A stable transfected cell line has been prepared at NN A/S, Denmark, and a high expressing clone was selected for screening. The cells were grown at 5% CO2 in DMEM, 5% FCS, 1% Pen/Strep (Penicillin/Streptomycin) and 0.5 mg/ml of the selection marker G418.
Cells at approximate 80% confluence were washed 2× with PBS (Phosphate Buffered Saline) and harvested with Versene (aqueous solution of the tetrasodium salt of ethylenediaminetetraacetic acid), centrifuged 5 min at 1000 rpm and the supernatant removed. The additional steps were all made on ice. […] Suspension in Buffer 2, homogenization and centrifugation was repeated once and the membranes were resuspended in Buffer 2 and ready for further analysis or stored at −80° C.
The functional receptor assay was carried out by measuring the peptide induced cAMP production by The AlphaScreen Technology. […] The capture of cAMP is achieved by using a specific antibody conjugated to acceptor beads. Formed cAMP was counted and measured at a AlphaFusion Microplate Analyzer. The EC50 values were calculated using the Graph-Pad Prisme software (version 5).

[2] = target: human serum albumin (HSA) (Homo sapiens, UniProt P02768); assay: Albumin binding affinity, competition scintillation proximity assay (SPA)
Chain of human serum albumin (HSA) (P02768 25-609): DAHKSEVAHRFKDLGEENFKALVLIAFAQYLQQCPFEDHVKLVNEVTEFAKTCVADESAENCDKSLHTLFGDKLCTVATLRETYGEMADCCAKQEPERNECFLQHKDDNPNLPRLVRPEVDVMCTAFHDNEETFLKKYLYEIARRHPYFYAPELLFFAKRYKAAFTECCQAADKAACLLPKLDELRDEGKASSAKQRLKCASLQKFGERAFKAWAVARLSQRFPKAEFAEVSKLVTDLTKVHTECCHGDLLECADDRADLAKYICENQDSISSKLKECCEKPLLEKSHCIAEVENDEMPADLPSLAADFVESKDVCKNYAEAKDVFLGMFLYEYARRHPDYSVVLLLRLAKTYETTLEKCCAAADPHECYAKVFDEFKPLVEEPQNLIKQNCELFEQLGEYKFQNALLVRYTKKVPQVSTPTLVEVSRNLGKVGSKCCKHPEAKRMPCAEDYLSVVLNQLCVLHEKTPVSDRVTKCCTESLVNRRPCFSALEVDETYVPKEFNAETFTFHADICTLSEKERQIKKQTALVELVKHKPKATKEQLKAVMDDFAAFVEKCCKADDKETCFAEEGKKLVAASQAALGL
Protocol: Streptavidin-SPA beads (GE Healthcare RPNQ0009) were incubated with biotinylated HSA for 5 hours. The beads were washed with buffer to remove unbound HSA. […] After 20 hours of gentle rocking at room temperature the plates were centrifuged and counted on a TopCounter.

Compound: CC[C@H](C)[C@H](NC(=O)[C@H](Cc1ccccc1)NC(=O)[C@H](CCC(=O)O)NC(=O)[C@H](CCCNC(=N)N)NC(=O)[C@H](C)NC(=O)[C@H](C)NC(=O)[C@H](CCC(N)=O)NC(=O)[C@H](CCC(=O)O)NC(=O)[C@H](CCC(=O)O)NC(=O)[C@H](CC(C)C)NC(=O)[C@H](Cc1ccc(O)cc1)NC(=O)[C@H](CO)NC(=O)[C@H](CO)NC(=O)[C@@H](NC(=O)[C@H](CC(=O)O)NC(=O)[C@H](CO)NC(=O)[C@@H](NC(=O)[C@H](Cc1ccccc1)NC(=O)[C@@H](NC(=O)CNC(=O)[C@H](CCC(=O)O)NC(=O)[C@H](C)NC(=O)CCc1c[nH]cn1)[C@@H](C)O)[C@@H](C)O)C(C)C)C(=O)N[C@@H](C)C(=O)N[C@@H](Cc1c[nH]c2ccccc12)C(=O)N[C@@H](CC(C)C)C(=O)N[C@H](C(=O)N[C@@H](CCCNC(=N)N)C(=O)NCC(=O)N[C@@H](CCCNC(=N)N)C(=O)N[C@@H](CCCCNC(=O)COCCOCCNC(=O)COCCOCCNC(=O)C[C@@H](NC(=O)C1CCN(C(=O)CCCCCCCCCCCCCCCCCCC(=O)O)CC1)C(=O)O)C(N)=O)C(C)C [Example 1, N-epsilon37{2-[2-(2-{2-[2-((R)-3-carboxy-3-{[1-(19-carboxynonadecanoyl)piperidine-4-carbonyl]amino}propionylamino)ethoxy]ethoxy}acetylamino)ethoxy]ethoxy}acetyl [desaminoHis7,Glu22,Arg26,Arg34,Lys37]GLP-1(7-37)amide]
EC50 [1]: 0.37 nM
EC50 [2]: 400 to 800 nM

Compound: CC[C@H](C)[C@H](NC(=O)[C@H](Cc1ccccc1)NC(=O)[C@H](CCC(=O)O)NC(=O)[C@H](CCCNC(=N)N)NC(=O)[C@H](C)NC(=O)[C@H](C)NC(=O)[C@H](CCC(N)=O)NC(=O)[C@H](CCC(=O)O)NC(=O)[C@H](CCC(=O)O)NC(=O)[C@H](CC(C)C)NC(=O)[C@H](Cc1ccc(O)cc1)NC(=O)[C@H](CO)NC(=O)[C@H](CO)NC(=O)[C@@H](NC(=O)[C@H](CC(=O)O)NC(=O)[C@H](CO)NC(=O)[C@@H](NC(=O)[C@H](Cc1ccccc1)NC(=O)[C@@H](NC(=O)CNC(=O)[C@H](CCC(=O)O)NC(=O)C(C)(C)NC(=O)[C@@H](N)Cc1c[nH]cn1)[C@@H](C)O)[C@@H](C)O)C(C)C)C(=O)N[C@@H](C)C(=O)N[C@@H](Cc1c[nH]c2ccccc12)C(=O)N[C@@H](CC(C)C)C(=O)N[C@H](C(=O)N[C@@H](CCCNC(=N)N)C(=O)NCC(=O)N[C@@H](CCCNC(=N)N)C(=O)N[C@@H](CCCCNC(=O)COCCOCCNC(=O)COCCOCCNC(=O)C[C@H](NC(=O)C1CCN(C(=O)CCCCCCCCCCCCCCCCCCC(=O)O)CC1)C(=O)O)C(N)=O)C(C)C [Example 2, N-epsilon37{2-[2-(2-{2-[2-((S)-3-carboxy-3-{[1-(19-carboxynonadecanoyl)piperidine-4-carbonyl]amino}propionylamino)ethoxy]ethoxy}acetylamino)ethoxy]ethoxy}acetyl [Aib8,Glu22,Arg26,Arg34,Lys37]GLP-1-(7-37)amide]
EC50 [1]: 0.2 nM
EC50 [2]: 200 to 400 nM

Compound: CC[C@H](C)[C@H](NC(=O)[C@H](Cc1ccccc1)NC(=O)[C@H](CCC(=O)O)NC(=O)[C@H](CCCNC(=N)N)NC(=O)[C@H](C)NC(=O)[C@H](C)NC(=O)[C@H](CCC(N)=O)NC(=O)[C@H](CCC(=O)O)NC(=O)[C@H](CCC(=O)O)NC(=O)[C@H](CC(C)C)NC(=O)[C@H](Cc1ccc(O)cc1)NC(=O)[C@H](CO)NC(=O)[C@H](CO)NC(=O)[C@@H](NC(=O)[C@H](CC(=O)O)NC(=O)[C@H](CO)NC(=O)[C@@H](NC(=O)[C@H](Cc1ccccc1)NC(=O)[C@@H](NC(=O)CNC(=O)[C@H](CCC(=O)O)NC(=O)C(C)(C)NC(=O)[C@@H](N)Cc1c[nH]cn1)[C@@H](C)O)[C@@H](C)O)C(C)C)C(=O)N[C@@H](C)C(=O)N[C@@H](CCCCNC(=O)COCCOCCNC(=O)COCCOCCNC(=O)C[C@H](NC(=O)C1CCN(C(=O)CCCCCCCCCCCCCCCCCCC(=O)O)CC1)C(=O)O)C(=O)N[C@@H](CC(C)C)C(=O)N[C@H](C(=O)N[C@@H](CCCCN)C(=O)NCC(=O)N[C@@H](CCCNC(=N)N)C(=O)NCC(=O)O)C(C)C [Example 5, N-epsilon31{2-[2-(2-{2-[2-((S)-3-carboxy-3-{[1-(19-carboxynonadecanoyl)piperidine-4-carbonyl]amino}propionylamino)ethoxy]ethoxy}acetylamino)ethoxy]ethoxy}acetyl [Aib8,Glu22,Arg26,Lys31]GLP-1-(7-37)] (H-H[Aib]EGTFTSDVSSYLEEQAAREFIAK([AEEA-AEEA-βAsp-Inp-C20 diacid])LVKGRG-OH)
EC50 [1]: 0.2 nM
EC50 [2]: 100 to 150 nM

Compound: CC[C@H](C)[C@H](NC(=O)[C@H](Cc1ccccc1)NC(=O)[C@H](CCC(=O)O)NC(=O)[C@H](CCCNC(=N)N)NC(=O)[C@H](C)NC(=O)[C@H](C)NC(=O)[C@H](CCC(N)=O)NC(=O)[C@H](CCC(=O)O)NC(=O)[C@H](CCC(=O)O)NC(=O)[C@H](CC(C)C)NC(=O)[C@H](Cc1ccc(O)cc1)NC(=O)[C@H](CO)NC(=O)[C@H](CO)NC(=O)[C@@H](NC(=O)[C@H](CC(=O)O)NC(=O)[C@H](CO)NC(=O)[C@@H](NC(=O)[C@H](Cc1ccccc1)NC(=O)[C@@H](NC(=O)CNC(=O)[C@H](CCC(=O)O)NC(=O)C(C)(C)NC(=O)[C@@H](N)Cc1c[nH]cn1)[C@@H](C)O)[C@@H](C)O)C(C)C)C(=O)N[C@@H](C)C(=O)N[C@@H](Cc1c[nH]c2ccccc12)C(=O)N[C@@H](CC(C)C)C(=O)N[C@H](C(=O)N[C@@H](CCCNC(=N)N)C(=O)NCC(=O)N[C@@H](CCCNC(=N)N)C(=O)N[C@@H](CCCCNC(=O)COCCOCCNC(=O)COCCOCCNC(=O)CC[C@H](NC(=O)[C@H]1CC[C@H](CNC(=O)CCCCCCCCCCCCCCCCCCC(=O)O)CC1)C(=O)O)C(N)=O)C(C)C [Example 7, N-epsilon37-[2-(2-{2-[2-(2-{2-[(S)-4-Carboxy-4-({trans-4-[(19-carboxy-nonadecanoylamino)methyl]cyclohexanecarbonyl}amino)butyrylamino]ethoxy}ethoxy)acetylamino]ethoxy}ethoxy)acetyl][Aib8,Glu22,Arg26,Arg34,Lys37]GLP-1-(7-37)amide]
EC50 [1]: 0.58 nM
EC50 [2]: 800 to 1500 nM

More lines, now with the values ahead:

EC50 [1]: 0.25 nM
Compound: CC[C@H](C)[C@H](NC(=O)[C@H](Cc1ccccc1)NC(=O)[C@H](CCC(=O)O)NC(=O)[C@H](CCCNC(=N)N)NC(=O)[C@H](C)NC(=O)[C@H](C)NC(=O)[C@H](CCC(N)=O)NC(=O)[C@H](CCC(=O)O)NC(=O)[C@H](CCC(=O)O)NC(=O)[C@H](CC(C)C)NC(=O)[C@H](Cc1ccc(O)cc1)NC(=O)[C@H](CO)NC(=O)[C@H](CO)NC(=O)[C@@H](NC(=O)[C@H](CC(=O)O)NC(=O)[C@H](CO)NC(=O)[C@@H](NC(=O)[C@H](Cc1ccccc1)NC(=O)[C@@H](NC(=O)CNC(=O)[C@H](CCC(=O)O)NC(=O)[C@H](C)NC(=O)CCc1c[nH]cn1)[C@@H](C)O)[C@@H](C)O)C(C)C)C(=O)N[C@@H](C)C(=O)N[C@@H](Cc1c[nH]c2ccccc12)C(=O)N[C@@H](CC(C)C)C(=O)N[C@H](C(=O)N[C@@H](CCCNC(=N)N)C(=O)NCC(=O)N[C@@H](CCCNC(=N)N)C(=O)N[C@@H](CCCCNC(=O)COCCOCCNC(=O)CC[C@H](NC(=O)CC[C@H](NC(=O)CCCCCCCCCCCNC(=O)CCCS(=O)(=O)NC(=O)CCCCCCCCCCCCCCCc1nnn(C(C)(C)C)n1)C(=O)O)C(=O)O)C(=O)O)C(C)C [Example 26, N-epsilon37-{2-[2-(2-{(S)-4-[(S)-4-(12-{4-[16-(2-tert-Butyl-2H-tetrazol-5-yl)-hexadecanoylsulfamoyl]butyrylamino}dodecanoylamino)-4-carboxybutyrylamino]-4-carboxybutyrylamino}ethoxy)ethoxy]acetyl}[DesaminoHis7,Glu22,Arg26,Arg34,Lys37] GLP-1 (7-37)]

EC50 [1]: 0.07 nM
Compound: CC[C@H](C)[C@H](NC(=O)[C@H](Cc1ccccc1)NC(=O)[C@H](CCC(=O)O)NC(=O)[C@H](CCCNC(=N)N)NC(=O)[C@H](C)NC(=O)[C@H](C)NC(=O)[C@H](CCC(N)=O)NC(=O)[C@H](CCC(=O)O)NC(=O)[C@H](CCC(=O)O)NC(=O)[C@H](CC(C)C)NC(=O)[C@H](Cc1ccc(O)cc1)NC(=O)[C@H](CO)NC(=O)[C@H](CO)NC(=O)[C@@H](NC(=O)[C@H](CC(=O)O)NC(=O)[C@H](CO)NC(=O)[C@@H](NC(=O)[C@H](Cc1ccccc1)NC(=O)[C@@H](NC(=O)CNC(=O)[C@H](CCC(=O)O)NC(=O)C(C)(C)NC(=O)[C@@H](N)Cc1c[nH]cn1)[C@@H](C)O)[C@@H](C)O)C(C)C)C(=O)N[C@@H](C)C(=O)N[C@@H](Cc1c[nH]c2ccccc12)C(=O)N[C@@H](CC(C)C)C(=O)N[C@H](C(=O)N[C@@H](CCCNC(=N)N)C(=O)NCC(=O)N[C@@H](CCCNC(=N)N)C(=O)N[C@@H](CCCCNC(=O)CC[C@H](NC(=O)COCCOCCNC(=O)COCCOCCNC(=O)CCCCCCCCCCCCCCCCC(=O)O)C(=O)O)C(=O)O)C(C)C [Example 38, N-epsilon-37-[(S)-4-carboxy-4-(2-{2-[2-(2-{2-[2-(17-carboxyheptadecanoylamino)ethoxy]ethoxy}acetylamino)ethoxy]ethoxy}acetylamino)butyryl] [Aib8,Glu22,Arg26,34,Lys37] GLP-1 (7-37)]
